The structures appear in SMILES notation.

This is an account of results in patent US20040127501A1, “Therapeutic agents useful for treating pain” (priority 2002, published 2004).

In the experiment the target is T1, mGluR5 (Rattus norvegicus, UniProt P31424).
T1 construct: The procedure allows the expression of the mGluR5 receptor by astrocytes; endogenous in cells; host or cells: secondary astrocyte cultures from embryonic (E18) Sprague-Dawley cortex, EGF-treated
Kind of experiment: mGluR5 calcium mobilization flux assay in primary astrocytes (Fluo-4, Fluorometric Imaging Plate reader). The conditions noted are these: astrocytes expressing mGluR5; calcium mobilization flux with glutamate (final 10 mM); mean of 5 experiments. The class given is cell-based, rat (Sprague-Dawley). How it is done:
Cell cultures: Primary glial cultures were prepared from cortices of Sprague-Dawley 18 days old embryos. The cortices were dissected and then dissociated by trituration. The resulting cell homogenate was plated onto poly-D-lysine precoated T175 flasks (BIOCOAT, commercially available from Becton Dickinson and Company Inc. of Franklin Lakes, N.J.) in Dulbecco's Modified Eagle's Medium (“DMEM,” pH 7.4), buffered with 25 mM HEPES, and supplemented with 15% fetal calf serum (“FCS,” commercially available from Hyclone Laboratories Inc. of Omaha, Nebr.), and incubated at 37° C. and 5% CO2. After 24 hours, FCS supplementation was reduced to 10%. […]
Assay Protocol: After 3-5 days incubation with EGF, the astrocytes were washed with 127 mM NaCl, 5 mM KCl, 2 mM MgCl2, […] NaH2PO4, 2 mM CaCl2, 5 mM NaHCO3, 8 mM HEPES, 10 mM Glucose at pH 7.4 (“Assay Buffer”) and loaded with the dye Fluo-4 (commercially available from Molecular Probes Inc. of Eugene, Oreg.) using 0.1 mL of Assay Buffer containing Fluo-4 ([…]). […] The plates containing the astrocytes were then transferred to a Fluorometric Imaging Plate reader (commercially available from Molecular Devices Corporation of Sunnyvale, Calif.) for the assessment of calcium mobilization flux in the presence of glutamate and in the presence or absence of antagonist. […] In each experiment each data point was determined two times.

T1 sequence (P31424 21-1203): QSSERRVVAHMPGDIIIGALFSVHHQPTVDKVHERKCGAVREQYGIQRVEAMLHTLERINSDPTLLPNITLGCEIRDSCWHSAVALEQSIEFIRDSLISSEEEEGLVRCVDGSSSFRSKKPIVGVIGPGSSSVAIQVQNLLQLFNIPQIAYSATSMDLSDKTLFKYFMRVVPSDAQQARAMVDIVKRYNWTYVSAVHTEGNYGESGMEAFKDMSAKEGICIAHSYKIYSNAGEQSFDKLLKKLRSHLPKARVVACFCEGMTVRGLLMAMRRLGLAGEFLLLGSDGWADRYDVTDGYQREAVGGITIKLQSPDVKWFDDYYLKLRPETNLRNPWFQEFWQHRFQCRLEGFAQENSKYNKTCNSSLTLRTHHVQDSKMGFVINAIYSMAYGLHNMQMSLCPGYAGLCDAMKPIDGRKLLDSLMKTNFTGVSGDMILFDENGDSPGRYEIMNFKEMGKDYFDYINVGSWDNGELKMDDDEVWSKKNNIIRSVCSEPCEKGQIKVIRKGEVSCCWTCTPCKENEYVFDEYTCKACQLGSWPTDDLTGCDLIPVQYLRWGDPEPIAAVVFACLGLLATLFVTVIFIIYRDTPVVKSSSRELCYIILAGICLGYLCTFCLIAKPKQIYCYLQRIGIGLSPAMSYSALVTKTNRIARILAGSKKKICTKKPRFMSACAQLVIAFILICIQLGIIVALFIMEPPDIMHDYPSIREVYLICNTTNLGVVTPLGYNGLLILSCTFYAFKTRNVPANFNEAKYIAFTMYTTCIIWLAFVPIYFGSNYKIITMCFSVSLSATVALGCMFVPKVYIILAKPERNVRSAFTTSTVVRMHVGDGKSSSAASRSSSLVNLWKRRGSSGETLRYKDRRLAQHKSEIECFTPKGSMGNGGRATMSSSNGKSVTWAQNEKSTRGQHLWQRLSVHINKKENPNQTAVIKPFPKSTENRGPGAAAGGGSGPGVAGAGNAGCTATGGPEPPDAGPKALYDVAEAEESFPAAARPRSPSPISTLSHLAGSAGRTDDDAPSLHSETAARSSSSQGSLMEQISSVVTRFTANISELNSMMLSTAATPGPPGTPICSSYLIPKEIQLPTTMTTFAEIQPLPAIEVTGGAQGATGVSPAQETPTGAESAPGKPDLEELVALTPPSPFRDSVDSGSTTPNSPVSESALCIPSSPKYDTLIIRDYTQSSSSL

By IC50 is commonly meant the midpoint of a concentration-inhibition curve. `O=C(C#Cc1ccccc1)N1CCN(c2ncccn2)CC1` [Compound AAA(IIa)]: the IC50 worked out at 555 ± 137 nM.
